ChEMBL document CHEMBL6153154, “Novel Carbocyclic Phenylpyrrolidinone Urea Compounds as FPR2 Agonists for Treating Atherosclerosis and Heart Failure” (ACS Med Chem Lett, 2025)

Biological target: T1, N-formyl peptide receptor 2 (Homo sapiens, UniProt P25090)
T1 sequence (P25090 whole entry): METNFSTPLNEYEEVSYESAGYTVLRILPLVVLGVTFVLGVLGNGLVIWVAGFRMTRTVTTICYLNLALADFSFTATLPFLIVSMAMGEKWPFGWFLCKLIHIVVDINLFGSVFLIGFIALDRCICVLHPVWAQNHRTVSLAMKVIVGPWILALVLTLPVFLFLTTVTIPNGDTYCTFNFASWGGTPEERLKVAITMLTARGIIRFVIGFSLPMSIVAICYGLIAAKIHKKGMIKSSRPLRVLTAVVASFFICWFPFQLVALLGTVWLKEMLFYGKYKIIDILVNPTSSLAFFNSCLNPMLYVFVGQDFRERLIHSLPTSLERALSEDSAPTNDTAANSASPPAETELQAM
Experiment: Agonist activity at human FPR2 expressed in CHO cells assessed as forskolin-induced cAMP level incubated for 30 mins in presence of IBMX by HTRF HiRange cAMP assay
Type: functional, cell-based

SMILES | EC50
CC(=O)N(C)CC1(c2ccc(N3CC[C@@H](NC(=O)Nc4ccc(C(F)(F)F)cc4F)C3=O)c(F)c2F)CC1 | 0.1 nM
O=C(Nc1ccc(C(F)(F)F)cc1F)N[C@@H]1CCN(c2ccc(C3(CN4CCCC4=O)CC3)c(F)c2F)C1=O | 0.23 nM
CP(C)(=O)CC1(c2ccc(N3CC[C@@H](NC(=O)Nc4ccc(C(F)(F)F)cc4F)C3=O)c(F)c2F)CCCC1 | 0.48 nM

The remaining lines, values ahead:

EC50 | SMILES
0.32 nM | O=C(Nc1ccc(Cl)cc1F)N[C@@H]1CCN(c2ccc(C3(CN4CCCC4=O)CC3)c(F)c2F)C1=O
0.41 nM | CC(=O)NCC1(c2ccc(N3CC[C@@H](NC(=O)Nc4ccc(Cl)cc4F)C3=O)c(F)c2F)CC1
0.49 nM | CC(C)S(=O)(=O)CC1(c2ccc(N3CC[C@@H](NC(=O)Nc4ccc(Cl)cc4F)C3=O)c(F)c2F)CC1
